The values that follow come from PubChem BioAssay (NCI).

Assay in all cases: NCI-60 cell line screen, 48 h
In test [1] the test system is MDA-MB-435.
The subject of test [2] is SNB-75 CNS.
Test [3] has as its system COLO 205 colon.
The subject of test [4] is OVCAR-8 ovarian.
Test [5] concerns PC-3 prostate.
In test [6] the test system is SK-OV-3 ovarian.
Test [7] has as its system KM12 colon.
Test [8] has as its system OVCAR-3 ovarian.
Test [9] relates to MCF7 breast.
Test [10] concerns HL-60(TB) leukemia.

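Grown in 96-well plates, cells were treated for 48 hours with each compound at five concentrations. Insufficient inhibition: endpoint recorded as highest concentration tested. TGI is the concentration that stops growth completely.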

As for `CC(=O)c1cc2c(s1)C(=O)c1scc(C(C)=O)c1C2=O`, the TGI is 0.496 µM in [1]; 2.65 µM in test [2]; 3.54 µM in [3]; 0.63 µM in [4]; 1.53 µM in [5]; 4.86 µM in test [6]. The TGI was found to be 3.39 µM in test [7] and 0.271 µM in test [8].

As to `C/C=C1\CN2CCC34c5ccccc5N(C)C35OCC4(C(=O)OC)C1CC25` (stereo not drawn), the TGI was above 100 µM in test [1]; above 100 µM in test [2]; 31.5 µM in [3]; above 100 µM in [9]; above 100 µM in [5]; 78.3 µM in [10]. Also, the TGI in test [6], in [7] and in test [8] was above 100 µM each time.

With `CCn1nc(-c2ccccc2)c2c1N(C)c1ccccc1-n1c(-c3ccccc3)nnc1-2`, the TGI is above 100 µM in [1]; 15.7 µM in test [2]; 48.5 µM in test [3]; 62.3 µM in [4]; 19.8 µM in test [9]; 27.7 µM in test [5]. The compound also returned a TGI in test [6] of 38.5 µM.

In the case of `Cc1ccc2ccc(=O)oc2c1`, the TGI in test [1], in test [2], in [3], in [4], in [9] and in test [5] was above 100 µM in each case. The TGI in test [10], in test [7] and in test [8] was above 100 µM each time.

In the case of `OC12C3C4CC5C(C4[C@@H]1Br)C2[C@@](O)(c1c(F)c(F)c(F)c(F)c1F)C53` (stereo partly drawn), the TGI is above 100 µM in test [1]; above 100 µM in [3]; above 100 µM in test [4]; 43.7 µM in test [9]; 94.4 µM in test [5]; above 100 µM in test [10]. The TGI in [7] was found to be 34.5 µM; in test [8], 65.8 µM.

On to `CC(C)(C)OC(=O)NC1CCCC1C(O)(C1=CCCC1)C1=CCCC1` (stereo not drawn), for which the TGI in test [1], in test [2], in test [3], in test [4], in [5] and in test [10] was above 100 µM each time. Also, the TGI in test [6], in test [7] and in [8] was above 100 µM in each case.

With `COc1ccc(OC)c(C(=O)/C=C/c2cc(O)c(O)cc2F)c1`, the TGI in test [1] was determined as 0.99 µM; in [2], 28.2 µM; in test [3], 31.7 µM; in test [4], 24.3 µM; in test [9], 14.3 µM; in test [5], 17.1 µM. Also, the TGI in [6] is above 67.5 µM; in test [7], 13.8 µM; in test [8], 1.59 µM.

In the case of `CN1c2ccccc2C(=O)NC12CCN(Cc1ccccc1)CC2`, the TGI in test [1], in test [2], in test [3], in [4], in test [9] and in [10] was above 100 µM in each case. Moreover, the TGI in test [6] and in test [7] was above 100 µM in each case.

On to `CCOC(=O)CN=C1Nc2ccccc2C(=O)N2CSCC12` (stereo not drawn), for which the TGI in test [1], in test [2], in test [3], in test [4], in test [9] and in test [5] was above 100 µM each time. Besides, the TGI in test [6], in [7] and in test [8] was above 100 µM in each case.

In the case of `COC(=O)C1=C(O)C(C(=O)OC)[C@]2(O)[C@H](C(=O)OC)[C@H]1C[C@@H](c1cccc(OC)c1)[C@H]2C(=O)OC` (stereo partly drawn), the TGI in [1] was 55.2 µM; in [2] it was above 100 µM; in [3], above 100 µM; in test [4], above 100 µM; in test [9], above 100 µM; in test [10] it was above 100 µM. The results for the TGI in test [6] and in [7] were 66.6 µM and 69.8 µM, respectively.

For the compound `Cc1c(NC(=S)N/N=C\C(=N/NC(=S)Nc2c(C)n(C)n(-c3ccccc3)c2=O)c2ccccc2)c(=O)n(-c2ccccc2)n1C`, the TGI in test [1], in test [2], in [3], in test [5], in test [6] and in [7] was above 100 µM each time. The TGI in [8] was above 100 µM.

Take `CC1(C)C2CCC1(C)C(N/C(=C(/C(Cl)=C(Cl)Cl)[N+](=O)[O-])n1nnc3ccccc31)C2` (stereo not drawn): the TGI in [1] is 46.2 µM; in test [2], 70 µM; in [3] it was 34.4 µM; in test [4] it was above 100 µM; in test [9] it was above 100 µM; in [5], 48.3 µM. The TGI in [6] is above 100 µM; in [7] it was 87.9 µM; in test [8], 32.6 µM.

For the compound `O=C1CSC(c2cccc(Cl)c2)N1c1c(O)c(Cl)cc(Br)c1Cl` (stereo not drawn), the TGI in [1] is 31.9 µM; in test [2], above 100 µM; in [3] it was 61.2 µM; in test [9], 29 µM; in test [5] it was above 100 µM; in test [10], 51.8 µM. Moreover, the values for the TGI in test [6], in [7] and in [8] were above 100 µM, above 100 µM and 33.4 µM, respectively.

`CN(C)Cc1cc(C(C)(C)C)cc(CNC2CCCCC2)c1O`: the TGI in [1] was above 100 µM; in test [2], above 100 µM; in test [3], 33.3 µM; in [9], above 100 µM; in test [5] it was above 100 µM; in [6], above 100 µM. For the same compound, the TGI in [7] and in test [8] was above 100 µM in each case.

For the compound `OCCN1CN(c2nc(N3CN(CCO)C3)nc(N3CN(CCO)C3)n2)C1`, the TGI in test [1] was 32.4 µM; in [2], 57 µM; in test [3] it was 59.2 µM; in [4], above 100 µM; in test [9], 46.9 µM; in test [5], 49.8 µM. Further, the results for the TGI in test [10] and in test [7] were 40.1 µM and 47.9 µM, respectively.

As for `O=c1[nH]c(=S)c2cc3c(=S)[nH]c(=O)n(CCC(c4ccccc4)(c4ccccc4)c4ccccc4)c3nc2n1CCC(c1ccccc1)(c1ccccc1)c1ccccc1`, the TGI in test [1], in [2], in [3], in test [9], in test [5] and in test [6] was above 100 µM in each case. The TGI in [7] and in test [8] was above 100 µM throughout.
